Read-outs that look alike come from different tables or passages of the source.
Assays:
Assay type in all cases: cell-based
[1] = system: HepG2 cells; experiment: Measurement of cholesterol synthesis inhibitory ability (cholesterol content in cell lysates, Amplex red)
Description: (§1) 2 mM metformin was used as a comparative compound for each of the plates (control group).
A cholesterol synthesis inhibitory ability, which is an important function of AMPK (AMP-activated protein kinase), was measured using HepG2 cells (ATCC: American Type Culture Collection) as a hepatic cell model according to the following procedure.
The hepatic cell model HepG2 cells were cultured in 1% serum-containing media (DMEM (Gibco), FBS (Gibco)) for 24 hours, and then treated with 100 μM or 500 μM of each of the compounds prepared in Examples for 24 hours. Then, the cells were disrupted with a lysis solution (0.1 M potassium phosphate, pH 7.4, 0.05 M NaCl, 5 mM cholic acid, 0.1% Triton X-100 (Sigma)). To the disrupted cells was added the same volume of a reaction solution (2 U/mL of a cholesterol oxidizing agent, 2 U/mL of a peroxidase, 0.2 U/mL of a cholesterol esterase, and 300 μM of Amplex red as a fluorescent factor (Molecular Probe)), which was allowed to react at 37° C. for 30 minutes. After completion of the reaction, the content of cholesterol formed in the cell lysates was measured at a wavelength of 560/590 nm (ex/em) using a fluorescence microscope.
A lower measurement value means an increased cholesterol synthesis inhibitory ability.

[2] = system: HepG2 cells; experiment: Measurement of triglyceride (triglyceride content in cell lysates, Amplex red)
Description: as §1
HepG2 cells (ATCC: American Type Culture Collection) were cultured in 1% serum-containing media (DMEM (Gibco), FBS (Gibco)) for 24 hours, and then treated with 100 μM or 500 μM of each of the compounds prepared in Examples for 24 hours. Then, the cells were disrupted with a lysis solution (0.1 M potassium phosphate, pH 7.4, 0.05 M NaCl, 5 mM cholic acid, 0.1% Triton X-100). […] After completion of the reaction, the content of triglyceride formed in the cell lysates was measured at a wavelength of 560/590 nm (ex/em) using a fluorescence microscope.
A lower measurement value means an increased triglyceride synthesis inhibitory ability.

[3] = system: HepG2 cells; experiment: Measurement of gluconeogenesis inhibitory ability (14C-lactate, glucose formed in cells)
Description: as §1
HepG2 cells (ATCC: American Type Culture Collection) were cultured in 10% serum-containing high glucose media, transferred to no serum-containing low glucose media (DMEM (Gibco), FBS (Gibco)), and then treated with 100 μM of each of the compounds for 24 hours. Then, the cells were treated with 0.5 μCi ^14C-lactate (Amersham Pharmacia) and 10 mM L-lactate (Sigma), and cultured for 4 hours. After cultivation, the media were removed therefrom, and the cells were washed with PBS, treated with 0.1N NaOH and kept at room temperature for 1 hour. Then, the cells were neutralized with 1N HCl, and the content of glucose formed in the cells was measured with a liquid scintillation counter.
A lower measurement value means an increased gluconeogenesis inhibitory ability.

[4] = system: C2C12 cells; experiment: Measurement of glucose absorption ability (3H-deoxy-glucose uptake with insulin); conditions: 100 uM compound with 1 μM insulin, 24 hours, differentiated C2C12, higher value = stronger, more than 200% counts as glucose absorption ability
Description: as §1
C2C12 cells (ATCC: American Type Culture Collection), a muscle cell model, were induced to differentiate into muscle cells in 2% bovine fetal serum-containing media (DMEM (Gibco), FBS (Gibco)) for 6 days. The C2C12 cells which differentiated into muscle cells were transferred to serum-free low glucose media (DMEM (Gibco), FBS (Gibco)), treated with 100 μM of each of the compounds, and then cultured with 1 μM of insulin for 24 hours. After cultivation, the cells were treated with 1 μCi ^3H-deoxy-glucose (Amersham Pharmacia) and 10 μM deoxy-glucose (Sigma) at 37° C. for 15 minutes. The media were removed therefrom, and the cells were washed twice with PBS (phosphate buffered saline). The washed cells were treated with 0.1N NaOH and neutralized with 1N HCl. The content of glucose absorbed into the cells was measured with a liquid scintillation counter.
A higher measurement value means a stronger ability to reduce insulin resistance.

[5] = 100 uM compound, 24 hours, HepG2, lower value = stronger cholesterol synthesis inhibition
[6] = 500 uM compound, 24 hours, HepG2, lower value = stronger cholesterol synthesis inhibition
[7] = 100 uM compound, 24 hours, HepG2, lower value = stronger triglyceride synthesis inhibition
[8] = 500 uM compound, 24 hours, HepG2, lower value = stronger triglyceride synthesis inhibition
[9] = 100 uM compound, 24 hours, HepG2, lower value = stronger gluconeogenesis inhibition
[10] = 100 uM compound, 24 hours, HepG2, lower value = stronger gluconeogenesis inhibition, 100 µM

Compound | Cholesterol (100 uM) Aver. [1, 5] | Cholesterol (500 uM) Aver. [1, 6] | Triglyceride (100 uM) Aver. [2, 7] | Triglyceride (500 uM) Aver. [2, 8] | Gluconeogenesis inhibition (100 uM) Aver. [3, 9] | Glucose absorption (100 uM) Aver. [4] | also measured
Cl.N=C(N)NC(=Nc1ccc(Br)cc1)NCCc1cccs1 [Example 33, N1-2-(thiophen-2-ylethyl)-N2-(4-bromophenyl) biguanide hydrochloride] | 24.52 | 31.66 | 29.12 | 27.48 | 17.03 | 14.24% | –
CN=C(NCCc1cccs1)NC(=N)N.Cl [Example 12, N1-2-(thiophen-2-ylethyl)-N2-methyl biguanide hydrochloride (isomer)] | 69.94 | – | 67.43 | – | – | 221.61% | Gluconeogenesis inhibition (100 uM) Aver. [3, 10]: 13.05
COc1ccc(N=C(NCCc2cccs2)NC(=N)N)cc1.Cl [Example 15, N1-2-(thiophen-2-ylethyl)-N2-(4-methoxy)phenyl biguanide hydrochloride] | – | – | – | – | – | – | Cholesterol (100 uM) Aver. ([1]; 100 uM compound, 24 hours, HepG2, lower value = stronger cholesterol synthesis inhibition, hydrochloride): 67.3; Cholesterol (500 uM) Aver. ([1]; 500 uM compound, 24 hours, HepG2, lower value = stronger cholesterol synthesis inhibition, hydrochloride): 39.7; Triglyceride (100 uM) Aver. ([2]; 100 uM compound, 24 hours, HepG2, lower value = stronger triglyceride synthesis inhibition, hydrochloride): 76.6; Triglyceride (500 uM) Aver. ([2]; 500 uM compound, 24 hours, HepG2, lower value = stronger triglyceride synthesis inhibition, hydrochloride): 41.4; Gluconeogenesis inhibition (100 uM) Aver. ([3]; 100 uM compound, 24 hours, HepG2, lower value = stronger gluconeogenesis inhibition, hydrochloride, 100 µM): 86.69; Glucose absorption (100 uM) Aver. ([4]; hydrochloride): 124.3%
CCCCCCN=C(NCCc1cccs1)NC(=N)N.Cl [Example 4, N1-2-(thiophen-2-ylethyl)-N2-hexyl biguanide hydrochloride] | 33.81 | 51.74 | 22.80 | 3.22 | 26.40 | 14.31% | –
Cc1ccc(CN=C(NCCc2cccs2)NC(=N)N)cc1.Cl [Example 40, N1-2-(thiophen-2-ylethyl)-N2-(4-methylbenzyl) biguanide hydrochloride] | – | – | – | – | – | 75.38% | Cholesterol (100 uM) Aver. [1]: 72.58; Cholesterol (500 uM) Aver. [1]: 57.11; Triglyceride (100 uM) Aver. [2]: 84.73; Triglyceride (500 uM) Aver. [2]: 60.37; Gluconeogenesis inhibition (100 uM) Aver. [3]: 81.23
N1-2-(thiophen-2-ylethyl)-N2-(4-bromobenzyl) biguanide hydrochloride [Example 37] | – | – | – | – | – | 7.71% | Cholesterol (100 uM) Aver. [1]: 28.36; Cholesterol (500 uM) Aver. [1]: 30.84; Triglyceride (100 uM) Aver. [2]: 61.41; Triglyceride (500 uM) Aver. [2]: 20.15; Gluconeogenesis inhibition (100 uM) Aver. [3]: 89.96
C=CCN=C(NCCc1cccs1)NC(=N)N.Cl [Example 44, N1-2-(thiophen-2-ylethyl)-N2-allyl biguanide hydrochloride] | – | – | – | – | – | 87.78% | Cholesterol (100 uM) Aver. [1]: 85.73; Cholesterol (500 uM) Aver. [1]: 82.40; Triglyceride (100 uM) Aver. [2]: 96.99; Triglyceride (500 uM) Aver. [2]: 74.60; Gluconeogenesis inhibition (100 uM) Aver. [3]: 77.80
COc1ccc(N=C(NCCc2cccs2)NC(=N)N)cc1.Cl [Example 30, N1-2-(thiophen-2-ylethyl)-N2-(4-methoxyphenyl) biguanide hydrochloride (isomer)] | 73.64 | 26.15 | 91.91 | 48.42 | – | 148.42% | Gluconeogenesis inhibition (100 uM) Aver. [3, 10]: 105.18
CCCCCN=C(NCCc1cccs1)NC(=N)N.Cl [Example 23, N1-2-(thiophen-2-ylethyl)-N2-pentyl biguanide hydrochloride] | 11.05 | 15.66 | 13.83 | 17.16 | 2.96 | 0.00% | –
COc1cc(N=C(NCCc2cccs2)NC(=N)N)cc(OC)c1OC.Cl [Example 17, N1-2-(thiophen-2-ylethyl)-N2-(3,4,5-trimethoxy)phenyl biguanide hydrochloride] | 87.2 | 57.5 | 86.2 | 79.4 | 95.56 | 165.2% | –
Cl.N=C(N)NC(=Nc1cccc(Br)c1)NCCc1cccs1 [Example 34, N1-2-(thiophen-2-ylethyl)-N2-(3-bromophenyl) biguanide hydrochloride] | 26.00 | 32.53 | 26.57 | 19.49 | 4.96 | 6.05% | –
Cl.N=C(N)NC(=NCc1ccccc1)NCCc1cccs1 [Example 8, N1-2-(thiophen-2-ylethyl)-N2-t-benzyl biguanide hydrochloride] | 37.77 | 7.28 | 77.65 | 30.78 | 81.27 | 243.3% | –
Cl.N=C(N)NC(=Nc1ccc(F)cc1)NCCc1cccs1 [Example 18, N1-2-(thiophen-2-ylethyl)-N2-(4-fluorophenyl) biguanide hydrochloride] | 50.3 | 23.4 | 67.0 | 39.5 | 86.69 | 88.16% | –
CC(C)CN=C(NCCc1cccs1)NC(=N)N.Cl [Example 42, -2-(thiophen-2-ylethyl)-N2-isobutyl biguanide hydrochloride] | 89.11 | 73.15 | 97.66 | 88.50 | 99.91 | 171.92% | –

Reference: patent publication US8648111B2, “N1-2-thiophene-2-ylethyl-N2-substituted biguanide derivate, preparation method thereof, and pharmaceutical composition containing the same as active ingredients” (Hanall Biopharma Co., Ltd., priority 2008, dated 2014)
